Reference: patent US12194007B2, “Pharmaceutical composition for preventing or treating cancer, comprising gossypol, phenformin, and anticancer agent” (National Cancer Center, priority 2018, dated 2025)

How the values were obtained:
[1] = tested on: PC3 cells xenograft tumor; assay: Prostate cancer mouse model, tumor growth; format: in vivo, Balb/c-nu mice; details: gossypol 80 mg/kg, phenformin 100 mg/kg, doxorubicin 5 mg/kg, single, double or triple (Table 28, FIGS. 13A, 13B)
[2] = tested on: PC3 cell line or DU145 cell line; assay: SRB cell proliferation assay, prostate cancer cell lines; format: cell-based; details: gossypol 5 μM, phenformin 100 μM, doxorubicin 1 nM, single, double or triple (Table 19, FIG. 7A)
[3] = tested on: BT549 cell line or MB231 cell line; assay: SRB cell proliferation assay, breast cancer cell lines; format: cell-based

COc1cccc2c1C(=O)c1c(O)c3c(c(O)c1C2=O)C[C@@](O)(C(=O)CO)C[C@@H]3O[C@H]1C[C@H](N)[C@H](O)[C@H](C)O1 [doxorubicin]
tumor growth level [1]: significantly inhibited tumor growth compared to the solvent control group
degree of cell proliferation with respect to the untreated control [2]: proliferation of cancer cells could be inhibited at a significant level
synergistic effect of anticancer action when mixed with gossypol and phenformin ([3]; breast cancer, named agent + gossypol 5 μM + phenformin 100 μM (Tables 13-15)): not exhibited
effect of inhibiting cell proliferation in the triple drug treatment group ([3]; cisplatin 1 μM or doxorubicin 1 μM mixed with gossypol 5 μM and phenformin 100 μM (Tables 14-15, FIGS. 5B, 5C)): level similar to that of the double drug treatment group
